From patent US8853172B2, “Anti-plant-virus agent” (National University Corporation Hokkaido University, priority 2009, dated 2014)

How the values were obtained:
Assay type in all cases: in vivo
[1] = tested on: Turnip mosaic virus; assay: Experiment III: therapeutic test, spraying after inoculation of Arabidopsis thaliana with Turnip mosaic virus (inoculation solution C); conditions: Arabidopsis thaliana (Columbia), ten columns inoculated, 20 mM sprayed on days 1, 4, 7 and 10 after inoculation, observed on the 16th day
Experimental: A nonionic surfactant (polyoxyethylene sorbitan monolaurate) and a spreading agent (Approach BI: manufactured by Kao Corporation) were dissolved in N,N-dimethylformamide. This solution was added to water to obtain an aqueous solution comprising 0.05% of a nonionic surfactant, 0.1% of a spreading agent, and 1% of N,N-dimethylformamide.
(§1) Two expanded leaves per one column of Arabidopsis thaliana (Columbia) were inoculated with the virus via the aforementioned virus inoculation solution C by the carborundum method.
On the 1st day, the 4th day, the 7th day and the 10th day after the date of the virus inoculation, the aforementioned aqueous solution was sprayed thereon.
On the 16th day after the date of the virus inoculation, the presence or absence of disease symptoms such as yellow mosaic of new leaves, leaf curling, plant stunting was observed.
(§2) Ascorbic acid 6-palmitate, a nonionic surfactant (polyoxyethylene sorbitan monolaurate) and a spreading agent (Approach BI: manufactured by Kao Corporation) were dissolved in N,N-dimethylformamide. This solution was added to water to obtain an aqueous solution of the anti-plant virus agent comprising 20 mM ascorbic acid 6-palmitate, 0.05% of a nonionic surfactant, 0.1% of a spreading agent, and 1% of N,N-dimethylformamide.
Except that the aqueous solution of the anti-plant virus agent was sprayed onto Arabidopsis thaliana instead of the aforementioned aqueous solution, in the same manner as Comparative Example 6, Turnip mosaic virus was inoculated onto Arabidopsis thaliana, and then the onset of the symptoms was examined.

[2] = tested on: Turnip mosaic virus; assay: Experiment II: preventive test, spraying before inoculation of Arabidopsis thaliana with Turnip mosaic virus (inoculation solution C); conditions: for columns that showed symptoms / columns that were healthy: Arabidopsis thaliana (Columbia), ten columns inoculated, 20 mM sprayed on the 3rd and 1st day before inoculation, observed on the 16th day
Experimental: The frozen tobacco leaves infected with Turnip mosaic virus were triturated in 0.1M phosphate-buffer solution at a 10-fold amount (containing 10 mM DIECA). Then, this was diluted 50 times with the same buffer solution. This was defined as virus inoculation solution C.
as §1
On the 3rd day and the 1st day prior to the date of the virus inoculation, an aqueous solution of 0.1% a spreading agent (Approach BI: manufactured by Kao Corporation) was sprayed thereon.
On the 16th day after the date of the virus inoculation, the presence or absence of disease symptoms such as yellow mosaic of new leaves, leaf curling, and plant stunting was observed.
Each was dissolved in water so as to be 20 mM ascorbic acid and 0.1% of a spreading agent (Approach BI: manufactured by Kao Corporation), thereby obtaining an aqueous solution of ascorbic acid. Except that the aqueous solution of ascorbic acid was sprayed onto Arabidopsis thaliana instead of the aqueous solution of the spreading agent, in the same manner as Comparative Example 3, Turnip mosaic virus was inoculated onto Arabidopsis thaliana, and then the onset of symptoms was examined.

[3] = tested on: Turnip mosaic virus; assay: Experiment I: spraying before and after inoculation of Arabidopsis thaliana with Turnip mosaic virus (inoculation solution A), onset of symptoms; conditions: for columns that showed symptoms / columns that were healthy: Arabidopsis thaliana (Columbia), seven columns inoculated, 20 mM sprayed on days 3 and 1 before and 1, 3, 5, 8, 10 after inoculation, observed on the 14th day
Experimental: (§3) Each of the frozen tobacco leaves infected with Turnip mosaic virus and Cucumber mosaic virus (Y strain) was triturated in 0.1M phosphate-buffer solution at a 10-fold amount (containing 10 mM diethyldithiocarbamic acid (DIECA)). These were defined as virus inoculation solutions A and B. These virus inoculation solutions A and B are solutions causing a 100% incidence.
(§4) Three expanded leaves per one column of Arabidopsis thaliana (Columbia) were inoculated with each virus via the aforementioned virus inoculation solutions A and B by the carborundum method.
(§5) On the 3rd day and the 1st day prior to the date of the virus inoculation, and on the 1st day, the 3rd day, the 5th day, the 8th day and the 10th days after the date of the virus inoculation, an aqueous solution of 0.1% of a spreading agent (Approach BI: manufactured by Kao Corporation) was sprayed thereon.
(§6) On the 14th day after the virus inoculation, the presence or absence of disease symptoms such as yellow mosaic of new leaves, leaf curling, and plant stunting was observed. […] It can be seen that the above virus inoculation solutions A and B are strong solutions in view of the fact that the inoculation with the solutions reliably causes the onset of symptoms.
(§7) Each was dissolved in water so as to be 20 mM ascorbic acid and 0.1% of a spreading agent (Approach BI: manufactured by Kao Corporation), thereby obtaining an aqueous solution of ascorbic acid. Except that the aqueous solution of ascorbic acid was sprayed onto Arabidopsis thaliana instead of the aqueous solution of the spreading agent, in the same manner as Comparative Example 1, Turnip mosaic virus and Cucumber mosaic virus (Y strain) were inoculated onto Arabidopsis thaliana, and then the onset of symptoms was examined.
as §2, with “of N,N-dimethylformamide. Except that the aqueous solution of the anti-plant virus agent was sprayed thereon instead of the aqueous solution of ascorbic acid, in the same manner as Comparative Example 2, Turnip mosaic virus and Cucumber mosaic virus (Y strain) were inoculated onto Arabidopsis thaliana, and then the onset of symptoms was examined.” for “of N,N-dimethylformamide.”
Each was added to water so as to be 20 mM ascorbic acid 2-phosphate ester 3-sodium and 0.1% of a spreading agent (Approach BI: manufactured by Kao Corporation), thereby obtaining an aqueous solution of the anti-plant virus agent. Except that the aqueous solution of the anti-plant virus agent was sprayed thereon instead of the aqueous solution of ascorbic acid, in the same manner as Comparative Example 2, Turnip mosaic virus was inoculated onto Arabidopsis thaliana, and then the onset of symptoms was examined.

[4] = tested on: Tomato aspermy virus (V strain); assay: Experiment IV: spraying of tomato (cultivar Beiju) inoculated with Tomato aspermy virus (V strain); conditions: four columns inoculated, 2 mM sprayed every day for two weeks from inoculation, observed on the 30th day
Experimental: The frozen tobacco (Nicotiana benthamiana) infected with Tomato aspermy virus (V strain) was triturated in 0.1M phosphate-buffer solution at a 10-fold amount (containing 10 mM DIECA), and was filtered through a double gauze and the filtrate was defined as virus inoculation solution D. Onto fully expanded leaves of the seedling stage of tomato (cultivar: Beiju) after a period of two weeks from seeding, the virus inoculation solution D was inoculated by physical application via the carborundum method.
After the virus inoculation, as a result of examination of disease symptoms over time, mosaic or leaf curling could be recognized after the 5th day, and lethal necrosis symptoms were shown after the period of two weeks, and all of the five columns inoculated with Tomato aspermy virus (V strain) withered.
200 mM of ascorbic acid 6-palmitate was dissolved in N,N-dimethylformamide. This solution was diluted 100 times with distilled water to obtain an aqueous solution of the anti-plant virus agent comprising 2 mM ascorbic acid 6-palmitate and 1% of N,N-dimethylformamide. In the same manner as Comparative Example 7, the tomato was inoculated with tomato aspermy virus (V strain). During the two weeks from the date of virus inoculation, the aforementioned aqueous solution was sprayed thereon every day, and disease symptoms were examined over time. […]

[5] = tested on: Cucumber mosaic virus (Y strain); assay: Experiment I: spraying before and after inoculation of Arabidopsis thaliana with Cucumber mosaic virus (Y strain) (inoculation solution B), onset of symptoms; conditions: Arabidopsis thaliana (Columbia), seven columns inoculated, 20 mM sprayed on days 3 and 1 before and 1, 3, 5, 8, 10 after inoculation, observed on the 14th day
Experimental: as §3, §4, §5, §6, §7
Ascorbic acid 6-palmitate, a nonionic surfactant (polyoxyethylene sorbitan monolaurate) and a spreading agent (Approach BI: manufactured by Kao Corporation) were dissolved in N,N-dimethylformamide. […]

SMILES: CCCCCCCCCCCCCCCC(=O)OC[C@H](O)[C@H]1OC(=O)C(OC(=O)CCCCCCCCCCCCCCC)=C1O [ascorbic acid 2,6-dipalmitate]
- columns that showed symptoms [1]: one
- columns that were healthy [1]: nine

SMILES: O=C1O[C@H]([C@@H](O)CO)C(O)=C1O[C@H]1O[C@H](CO)[C@@H](O)[C@H](O)[C@H]1O [ascorbic acid 2-glucoside]
- columns that showed symptoms [2]: one
- columns that were healthy [2]: nine

SMILES: O=C1O[C@H]([C@@H](O)CO)C([O-])=C1OP(=O)([O-])[O-].[Na+].[Na+].[Na+] [ascorbic acid 2-phosphate ester 3-sodium]
- columns that showed symptoms [3]: five
- columns that were healthy [3]: two
- columns that were healthy [2]: ten

SMILES: CCCCCCCCCCCCCCCC(=O)OC[C@H](O)[C@H]1OC(=O)C(O)=C1O [ascorbic acid 6-palmitate]
- columns that showed symptoms [3]: five
- columns that were healthy [3]: two
- columns that showed symptoms [1]: one
- columns that were healthy [1]: nine
- columns that were healthy [4]: two
- columns that withered [4]: two
- columns that showed symptoms [5]: five
- columns that were healthy [5]: two

SMILES: CCCCCCCCCCCCCCCCCC(=O)OC[C@H](O)[C@H]1OC(=O)C(O)=C1O [ascorbic acid 6-stearate]
- columns that showed symptoms [1]: one
- columns that were healthy [1]: nine

SMILES: O=C1O[C@H]([C@@H](O)CO)C(O)=C1O [ascorbic acid, reference compound]
- columns that showed symptoms [3]: seven
- anti-plant viral activity (conclusion in words) ([3]; Experiment I, 20 mM spray): does not have any anti-plant viral activity
- columns that showed symptoms [2]: two
- columns that were healthy [2]: eight
- anti-plant viral activity / preventive effect (conclusion in words) ([2]; Experiment II, 20 mM sprayed before inoculation): do not have any anti-plant viral activity
- columns that showed symptoms [5]: seven

SMILES: CCCCCCCCC(CCCCCC)C(=O)OCC(OC(=O)C(CCCCCC)CCCCCCCC)C1OC(=O)C(OC(=O)C(CCCCCC)CCCCCCCC)=C1OC(=O)C(CCCCCC)CCCCCCCC (stereo not drawn) [ascorbyl 2,3,5,6-tetrahexyldecanoate]
- columns that showed symptoms [1]: one
- columns that were healthy [1]: nine

SMILES: O=C1O[C@H]([C@@H](O)CO)C([O-])=C1O.[Na+] [sodium ascorbate]
- columns that showed symptoms [2]: three
- columns that were healthy [2]: seven
